The source of these data is paper PMC9401600 (Chemmedchem, 2022).

Molecules are shown by their SMILES. pIC50: −log10 of the molar value.

Series [1] concerns the target T1, G9a (Homo sapiens, UniProt Q96KQ7).
T1 construct: purchased BPS Bioscience 52051
T1 sequence (Q96KQ7 1-1210): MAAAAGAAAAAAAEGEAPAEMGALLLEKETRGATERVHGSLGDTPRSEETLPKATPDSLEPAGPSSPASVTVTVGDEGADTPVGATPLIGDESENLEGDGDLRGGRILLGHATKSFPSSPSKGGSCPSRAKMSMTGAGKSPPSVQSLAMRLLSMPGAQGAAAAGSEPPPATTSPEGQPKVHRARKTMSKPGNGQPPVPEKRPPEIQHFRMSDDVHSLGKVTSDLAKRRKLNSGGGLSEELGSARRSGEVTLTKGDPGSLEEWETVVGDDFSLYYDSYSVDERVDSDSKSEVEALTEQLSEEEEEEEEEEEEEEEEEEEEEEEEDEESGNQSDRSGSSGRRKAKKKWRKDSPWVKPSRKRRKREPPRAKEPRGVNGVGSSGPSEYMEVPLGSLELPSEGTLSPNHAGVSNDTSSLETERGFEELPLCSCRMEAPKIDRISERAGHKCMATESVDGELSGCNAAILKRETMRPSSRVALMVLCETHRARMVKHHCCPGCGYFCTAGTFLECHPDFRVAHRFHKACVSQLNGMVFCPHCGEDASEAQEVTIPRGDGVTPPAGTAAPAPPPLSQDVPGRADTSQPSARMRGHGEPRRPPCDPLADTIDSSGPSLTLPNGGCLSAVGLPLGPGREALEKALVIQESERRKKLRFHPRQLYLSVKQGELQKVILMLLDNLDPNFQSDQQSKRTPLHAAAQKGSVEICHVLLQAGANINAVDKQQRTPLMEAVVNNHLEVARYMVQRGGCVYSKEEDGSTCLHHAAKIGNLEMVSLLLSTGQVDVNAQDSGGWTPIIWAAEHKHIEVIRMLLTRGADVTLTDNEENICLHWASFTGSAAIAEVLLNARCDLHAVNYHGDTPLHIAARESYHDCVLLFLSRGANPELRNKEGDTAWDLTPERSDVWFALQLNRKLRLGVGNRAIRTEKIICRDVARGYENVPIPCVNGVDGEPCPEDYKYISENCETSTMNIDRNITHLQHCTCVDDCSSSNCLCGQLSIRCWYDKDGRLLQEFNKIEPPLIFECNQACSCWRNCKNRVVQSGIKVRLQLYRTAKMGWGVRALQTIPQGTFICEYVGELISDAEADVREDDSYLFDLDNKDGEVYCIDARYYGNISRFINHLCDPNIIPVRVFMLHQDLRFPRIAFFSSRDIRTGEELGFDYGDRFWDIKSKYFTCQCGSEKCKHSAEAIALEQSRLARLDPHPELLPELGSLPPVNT
Also noted: method as in PMID 31141392, PMID 31276898, PMID 29890830, PMID 33661013, PMID 30753076. To be noted: previously reported, dependent on the assay conditions used; cited from earlier work.

Series [2] deals with T1, G9a. Briefly: G9a Homogeneous Assay Kit (AlphaLISA) G9a inhibition. In kind it is biochemical.
Method: The percentages of G9a activity for the 10 selected molecules were determined at 100 μM S‐adenosylmethionine (SAM) and peptide substrate using AlphaLISA® technology. These percentages were used to calculate the IC50.
G9a inhibitors were serially diluted between 5 nM and 0.001 nM in 100 % DMSO (Sigma, St. Louis, USA). Then, respective concentrations were subsequently diluted in MilliQ purified water to reach a final concentration ranging between 50 and 0.001 μM in 1 % DMSO in well.
Briefly, a sample containing the G9a enzyme is incubated with the biotinylated substrate plus inhibitor solution for two hours. Next, acceptor beads and primary antibody is added, followed by donor beads. Finally, the Alpha‐counts were read using an AlphaScreen microplate reader. The experiment was run per triplicate. G9aactivity(%)=(C-Cb)/(Ct-Cb)x100
Ct=The chemiluminescence reading in the absence of the compound. The data set here is defined as 100 % activity in the absence of the compound.
Cb=The chemiluminescence reading in absence of enzyme. The data set here is defined as 0 % activity in the absence of the enzyme.
C=The chemiluminescence reading in the presence of the compound.
Data analysis was conducted using GraphPad Prism ver. 9 statistical software. The statistical outliers were identified with Grubb's test and excluded from the analysis. Group comparisons were carried out with a One‐way Analysis of variance (ANOVA), followed by the Dunnett post hoc test. In some cases, comparison between groups was also performed by unpaired t‐test or One‐way ANOVA, followed by Fisher's LSD post hoc test. For the calculation of IC50, non‐linear regressions were performed. […] Values are shown as the mean ± Standard error of the mean (SEM) of at least n=3. Statistical significance was considered when p values were <0.05.
The next series in a line: PAMPA‐BBB assay. The series is classed as in vitro ADME. To be noted: pig, PAMPA; PBS:EtOH (70 : 30); values as printed in text; read-out: in vitro permeability (Pe), PAMPA‐BBB. (PAMPA measures passive passage across an artificial lipid membrane.)
The subject of series [3] is Aβ deposits in CL2006 strain. The series can be described thus: Thioflavin‐S staining of Aβ aggregation. To be noted: head region, after 5 days of treatment, compared to the vehicle group. The series is classed as in vivo, Caenorhabditis elegans. Here is the method: The transgenic AD strain CL2006 is characterized by the expression of human Aβ1‐42 under the control of a muscle‐specific promoter, making it suitable to answer this objective in our work. As we mentioned above, UNC0638 was used as a positive control. […] After 5 days of treatment, adult CL2006 C. elegans were fixed in 4 % Paraformaldehyde/Phosphate‐buffered saline (PBS) (pH 7.5), for 24 hours at 4 °C. […] On the last day, nematodes were stained with 0.125 % Thioflavin‐S (ThS) (Sigma, CAS# 1326–12‐1) in 50 % ethanol (EtOH) for 2 min, destained in 50 % EtOH for 2 min, washed 3 times with PBS. To prepare the glass slide for microscopy, approximately 10 μL volume was transferred on a droplet of Fluoromount G (Electron Microscopy Sciences, CAT#17984‐25). Fluorescence images were acquired using a 20 Å∼ objective of a fluorescence microscope. Aβ in the head region of worms were quantified by counting the number of Th−S positive spots using ImageJ and were expressed as Aβ deposits/anterior area.

Method for PAMPA‐BBB assay: To evaluate the brain penetration of the different compounds, a parallel artificial membrane permeation assay for BBB was used, following the method described by Di et al..[33] The in vitro Pe of fourteen commercial drugs through lipid extract of porcine brain membrane together with the test compounds were determined. Commercial drugs and assayed compounds were tested using a mixture of PBS:EtOH (70 : 30).

As for `O=C1c2ccccc2-c2onc3c(N4CCCC4)cc(NCCN4CCCC4)c1c23` [Compound 7], the negative-log IC50 (pIC50) at G9a [1] was 5.92.

Take `COc1cc2c(cc1OC)-c1c(C)c3cc(OC)c(OC)cc3c[n+]1CC2` [Compound 8, pseudodehydrocorydaline]: the pIC50 at G9a [1] is 4.79.

Regarding `COc1cc2c(NC3CCN(C(C)C)CC3)nc(C3CCCCC3)nc2cc1OCCCN1CCCC1` [UNC0638, reference compound], the “% G9a activity” value at G9a [2] (0.0001 µM, first data set of Table S2) is 36.4%; on G9a [2] (0.0001 µM, second data set of Table S2), 37.2%; at G9a [2] (0.0001 µM, third data set of Table S2) it was 36.8%; on G9a [2] (0.001 µM, first data set of Table S2) it was 34.1%; at G9a [2] (0.001 µM, second data set of Table S2), 35.7%; on G9a [2] (0.001 µM, third data set of Table S2), 34.9%. Besides, the “% G9a activity” value amounted to 17.0% at G9a [2] (0.01 µM, first data set of Table S2); 15.3% at G9a [2] (0.01 µM, second data set of Table S2); 16.1% at G9a [2] (0.01 µM, third data set of Table S2); 7.9% at G9a [2] (0.1 µM, first data set of Table S2); 6.8% on G9a [2] (0.1 µM, second data set of Table S2); 7.0% on G9a [2] (0.1 µM, third data set of Table S2). Further, the “% G9a activity” value on G9a [2] (1 µM, first data set of Table S2) came to 5.2%; on G9a [2] (1 µM, second data set of Table S2) it was 5.8%; on G9a [2] (1 µM, third data set of Table S2) it was 6.3%; on G9a [2] (10 µM, first data set of Table S2), 1.9%; at G9a [2] (10 µM, second data set of Table S2), 2.6%; at G9a [2] (10 µM, third data set of Table S2), 1.9%. Besides, the “% G9a activity” value at G9a [2] (50 µM, first data set of Table S2) is reported as 0.1%; on G9a [2] (50 µM, second data set of Table S2), 0.7%; at G9a [2] (50 µM, third data set of Table S2), 0.3%. Further, the Papp in the series “PAMPA‐BBB assay” worked out at 6.2 ×10⁻⁶ cm/s. In series [3], the “reduction of Aβ deposition (Thioflavin S‐positive particles)” value is reported as “approximately 25%”.

The term pIC50 denotes the IC50 on a negative log10 scale, so that one unit is a factor of ten.
